Literature values, collected in patent US20190045778A1, “EMULSIFIABLE CONCENTRATES” (priority 2016, published 2019).
Read-outs that look alike come from different tables or passages of the source.

Compound	Water Solubility (at 25° C.)	Water Solubility (at 20° C.)
thiamethoxam	4.1 g/L at 25 °C	
N#C/N=C1/SCCN1Cc1ccc(Cl)nc1 [thiacloprid]		0.1 g/L at 20 °C
CN/C(=N\[N+](=O)[O-])NCc1cnc(Cl)s1 [clothianidin]		0.33 g/L at 20 °C
